How the values were obtained:
HCT-116 = test: Antiproliferative activity against human HCT116 cells after 72 hrs by Alamar blue assay; assay type: functional; conditions: HCT-116, 72 h
[1] = molecular target: Casein kinase II subunit alpha (Homo sapiens) (UniProt P68400); test: Inhibition of N-terminal 6 X His-tagged recombinant human full length Casein Kinase 2 alpha subunit expressed in Sf21 insect cells using BODIPY-FL-RRRDDDSDDD-CONH2 as substrate preincubated for 20 mins measured after 90 mins by fluorescence-based assay
Chain of Casein kinase II subunit alpha (Homo sapiens) (P68400 whole entry, looked up): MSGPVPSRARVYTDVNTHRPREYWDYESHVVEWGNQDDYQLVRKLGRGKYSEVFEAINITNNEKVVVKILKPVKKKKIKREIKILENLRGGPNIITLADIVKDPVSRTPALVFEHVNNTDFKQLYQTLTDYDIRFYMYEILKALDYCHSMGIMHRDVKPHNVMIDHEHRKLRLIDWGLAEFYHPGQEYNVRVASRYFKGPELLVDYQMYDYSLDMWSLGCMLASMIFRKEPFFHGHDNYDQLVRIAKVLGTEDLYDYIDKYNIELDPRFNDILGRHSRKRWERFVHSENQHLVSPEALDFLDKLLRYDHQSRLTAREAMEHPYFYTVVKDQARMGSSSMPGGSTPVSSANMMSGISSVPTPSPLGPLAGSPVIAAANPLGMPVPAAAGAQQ

Structure (SMILES)	GI50 (HCT-116) [µM]	IC50 [1] [µM]
CC(=O)Nc1cc(Nc2cc(NC3CC3)n3ncc(C#N)c3n2)ccc1N(C)CCN(C)C	0.03	< 4
CC(=O)Nc1cc(Nc2cc(NC3CC3)n3ncc(C#N)c3n2)ccc1N(C)CCN	0.009	–

From ChEMBL document CHEMBL3102745, “Inhibition of CK2: An Attractive Therapeutic Target for Cancer Treatment” (ACS Med Chem Lett, 2013)
